Assay results reported in patent US7964531B2, “3-phenoxy-4-pyridazinol derivatives and herbicidal composition containing the same” (Mitsui Chemicals Agro, Inc., priority 2001, dated 2011).

Legend:
Assay type in all cases: in vivo
Cyperus serotinus [1] = assay: Test Example 1: herbicidal effects, paddy-field pot test; conditions: wettable powder applied 3 days after transplanting, judged after 25 days
How it was run: (§1)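 Paddy soil pots sown with dormancy-broken weed seeds mixed into the top 1 cm, plus germinated Cyperus serotinus tubers and transplanted 2.2-leaf rice seedlings, grown flooded in a greenhouse. Water-diluted wettable powder applied 3 days after transplanting; growth inhibition scored 25 days later on a 0–5 scale (0 = 0–10%, 5 = 91–100%).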

Scirpus joncoides [2] = assay: as above; conditions: wettable powder applied 3 days after transplanting, judged after 25 days
How it was run: as §1

[3] = system: barnyardgrass (Echinochloa oryzicola Vasing.); assay: as above; conditions: wettable powder applied 3 days after transplanting, judged after 25 days
How it was run: as §1

[4] = system: annual broad-leaved weeds (Lindernia spp., Rotala indica); assay: as above; conditions: wettable powder applied 3 days after transplanting, judged after 25 days
How it was run: as §1

Cyperus serotinus [5] = assay: Test Example 4: herbicidal effects of mixed wettable powder, paddy-field pot test; conditions: no second compound, after 25 days
Procedure: (§2) Paddy filed soil was filled in 1/5000 are Wagner pot, seeds of barnyardgrass (Echinochloa oryzicola Vasing.), Scirpus joncoides and annual broad-leaved weeds (Lindernia spp. and Rotala indica) which are awaken from dormancy were mixed at the surface layer of 1 cm. Also, tubers of Cyperus serotinus, Sagittaria pygmaea and Eleocharis kuroguwai which are awaken from dormancy were planted, and further seedlings of paddy-field rice at 2.2-leaf stage were transplanted and they were grown under the flooded condition in a greenhouse. After 3 days from the transplanting, a predetermined chemical dosage of the wettable powder prepared in accordance with Preparation example 5 was diluted with water, and applied to the pot. After 25 days, herbicidal effects and crop injury against transplanted paddy-field rice were judged according to the following judgment standard, and the results were shown in Table 5. Incidentally, “-” in the table means a composition containing no effective ingredient.
(§3) Judgment Standard • 0: Growth-inhibition rate; 0 to 15% • 1: Growth inhibition rate; 16 to 35% • 2: Growth inhibition rate; 36 to 55% • 3: Growth inhibition rate; 56 to 75% • 4: Growth inhibition rate; […] • 5: Growth inhibition rate; 96 to 100%.

Sagittaria pygmaea = assay: as above; conditions: no second compound, after 25 days
Procedure: as §2, §3

Scirpus joncoides [6] = assay: as above; conditions: no second compound, after 25 days
Procedure: as §2, §3

Eleocharis kuroguwai = assay: as above; conditions: no second compound, after 25 days
Procedure: as §2, §3

[7] = system: barnyardgrass (Echinochloa oryzicola Vasing.); assay: as above; conditions: no second compound, after 25 days
Procedure: as §2, §3

[8] = system: annual broad-leaved weeds (Lindernia spp. and Rotala indica); assay: as above; conditions: no second compound, after 25 days
Procedure: as §2, §3

[9] = system: transplanted paddy-field rice; assay: Test Example 1: crop injury against transplanted paddy-field rice; conditions: wettable powder applied 3 days after transplanting, judged after 25 days
How it was run: as §1

[10] = system: transplanted paddy-field rice; assay: Test Example 4: crop injury against transplanted paddy-field rice; conditions: no second compound, after 25 days
Procedure: as §2, §3

barnyardgrass = assay: Test Example 2: herbicidal effects (soil treatment); conditions: dosage 5 kg/a; soil treatment the day after seeding; judged after 21 days
Text: (§4) Judgment Standard • 0: Growth inhibition rate; 0 to 10% • 1: Growth inhibition rate; 11 to 30% • 2: Growth inhibition rate; 31 to 50% • 3: Growth inhibition rate; 51 to 70% • 4: Growth inhibition rate; 71 to 90% • 5: Growth inhibition rate; 91 to 100%.
(§5) Upland soil was filled in 150 cm^2 pot, and seeds of barnyardgrass and indian mustard (Brassica juncea (L.) Czern. et Coss) were sowed, and grown in a greenhouse. At the next day of seeding, a predetermined chemical dosage of the wettable powder prepared in accordance with Preparation example 1 was diluted in water and applied to soil surface. After 21 days from the treatment, herbicidal effects were judged in accordance with the judgment standard of Test example 1, and the results were shown in Table 3.

[11] = system: indian mustard (Brassica juncea (L.) Czern. et Coss); assay: as above; conditions: dosage 5 kg/a; soil treatment the day after seeding; judged after 21 days
Text: as §4, §5

| Compound | Herbicidal effects Cyperus serotinus (Cyperus serotinus [1]; chemical dosage 10 g/a) | Herbicidal effects Cyperus serotinus (Cyperus serotinus [1]; chemical dosage 20 g/a) | Herbicidal effects Scirpus joncoides (Scirpus joncoides [2]; chemical dosage 10 g/a) | Herbicidal effects Scirpus joncoides (Scirpus joncoides [2]; chemical dosage 20 g/a) | Herbicidal effects Barnyard grass ([3]; chemical dosage 10 g/a) | Herbicidal effects Barnyard grass ([3]; chemical dosage 20 g/a) | Herbicidal effects Broad leaf ([4]; chemical dosage 10 g/a) | Herbicidal effects Broad leaf ([4]; chemical dosage 20 g/a) | Herbicidal effects Cyperus serotinus (Cyperus serotinus [5]; derivative 5 g/a) | Herbicidal effects Cyperus serotinus (Cyperus serotinus [5]; derivative 10 g/a) | Herbicidal effects Sagittaria pygmaea (Sagittaria pygmaea; derivative 5 g/a) | Herbicidal effects Sagittaria pygmaea (Sagittaria pygmaea; derivative 10 g/a) | Herbicidal effects Scirpus joncoides (Scirpus joncoides [6]; derivative 5 g/a) | Herbicidal effects Scirpus joncoides (Scirpus joncoides [6]; derivative 10 g/a) | Herbicidal effects Eleocharis kuroguwai (Eleocharis kuroguwai; derivative 5 g/a) | Herbicidal effects Eleocharis kuroguwai (Eleocharis kuroguwai; derivative 10 g/a) | Crop injury against transplanted rice ([9]; chemical dosage 10 g/a) | Crop injury against transplanted rice ([9]; chemical dosage 20 g/a) | Herbicidal effects Barnyard-grass (barnyardgrass) | Herbicidal effects indian mustard [11] | other results |
| --- | --- | --- | --- | --- | --- | --- | --- | --- | --- | --- | --- | --- | --- | --- | --- | --- | --- | --- | --- | --- | --- |
| Oc1cc(Cl)nnc1Oc1cccc2c1CCC2 [Example 171] | 5 (Growth inhibition rate; 91 to 100%) | 5 (Growth inhibition rate; 91 to 100%) | 5 (Growth inhibition rate; 91 to 100%) | 5 (Growth inhibition rate; 91 to 100%) | 3 (Growth inhibition rate; 51 to 70%) | 4 (Growth inhibition rate; 71 to 90%) | 5 (Growth inhibition rate; 91 to 100%) | 5 (Growth inhibition rate; 91 to 100%) | 5 (Growth inhibition rate; 96 to 100%) | 5 (Growth inhibition rate; 96 to 100%) | 5 (Growth inhibition rate; 96 to 100%) | 5 (Growth inhibition rate; 96 to 100%) | 5 (Growth inhibition rate; 96 to 100%) | 5 (Growth inhibition rate; 96 to 100%) | 2 (Growth inhibition rate; 36 to 55%) | 3 (Growth inhibition rate; 56 to 75%) | 0 (Growth inhibition rate; 0 to 10%) | 0 (Growth inhibition rate; 0 to 10%) | 5 (Growth inhibition rate; 91 to 100%) | 5 (Growth inhibition rate; 91 to 100%) | Herbicidal effects Barnyard grass ([7]; derivative 5 g/a): 2 (Growth inhibition rate; 36 to 55%); Herbicidal effects Barnyard grass ([7]; derivative 10 g/a): 3 (Growth inhibition rate; 56 to 75%); Herbicidal effects Broad leaf ([8]; derivative 5 g/a): 5 (Growth inhibition rate; 96 to 100%); Herbicidal effects Broad leaf ([8]; derivative 10 g/a): 5 (Growth inhibition rate; 96 to 100%); Crop injury against transplanted rice ([10]; derivative 5 g/a): 0 (Growth-inhibition rate; 0 to 15%); Crop injury against transplanted rice ([10]; derivative 10 g/a): 0 (Growth-inhibition rate; 0 to 15%) |
| Oc1cc(Cl)nnc1Oc1c(Cl)cccc1C1CC1 [Example 245] | 5 (Growth inhibition rate; 91 to 100%) | 5 (Growth inhibition rate; 91 to 100%) | 5 (Growth inhibition rate; 91 to 100%) | 5 (Growth inhibition rate; 91 to 100%) | 4 (Growth inhibition rate; 71 to 90%) | 4 (Growth inhibition rate; 71 to 90%) | 5 (Growth inhibition rate; 91 to 100%) | 5 (Growth inhibition rate; 91 to 100%) | 4 (Growth inhibition rate; 7.6 to 95%) | 5 (Growth inhibition rate; 96 to 100%) | 4 (Growth inhibition rate; 7.6 to 95%) | 5 (Growth inhibition rate; 96 to 100%) | 5 (Growth inhibition rate; 96 to 100%) | 5 (Growth inhibition rate; 96 to 100%) | 0 (Growth-inhibition rate; 0 to 15%) | 1 (Growth inhibition rate; 16 to 35%) | 0 (Growth inhibition rate; 0 to 10%) | 0 (Growth inhibition rate; 0 to 10%) | 3 (Growth inhibition rate; 51 to 70%) | 5 (Growth inhibition rate; 91 to 100%) | Herbicidal effects Barnyard grass ([7]; derivative 5 g/a): 3 (Growth inhibition rate; 56 to 75%); Herbicidal effects Barnyard grass ([7]; derivative 10 g/a): 4 (Growth inhibition rate; 7.6 to 95%); Herbicidal effects Broad leaf ([8]; derivative 5 g/a): 5 (Growth inhibition rate; 96 to 100%); Herbicidal effects Broad leaf ([8]; derivative 10 g/a): 5 (Growth inhibition rate; 96 to 100%); Crop injury against transplanted rice ([10]; derivative 5 g/a): 0 (Growth-inhibition rate; 0 to 15%); Crop injury against transplanted rice ([10]; derivative 10 g/a): 0 (Growth-inhibition rate; 0 to 15%) |
| Cc1cccc(I)c1Oc1nnc(Cl)cc1O [Example 256] | 5 (Growth inhibition rate; 91 to 100%) | 5 (Growth inhibition rate; 91 to 100%) | 5 (Growth inhibition rate; 91 to 100%) | 5 (Growth inhibition rate; 91 to 100%) | 3 (Growth inhibition rate; 51 to 70%) | 4 (Growth inhibition rate; 71 to 90%) | 5 (Growth inhibition rate; 91 to 100%) | 5 (Growth inhibition rate; 91 to 100%) |  |  |  |  |  |  |  |  | 2 (Growth inhibition rate; 31 to 50%) | 3 (Growth inhibition rate; 51 to 70%) | 3 (Growth inhibition rate; 51 to 70%) | 5 (Growth inhibition rate; 91 to 100%) |  |
| Oc1cc(Cl)nnc1Oc1c(Br)ccc2ccoc12 [Example 309] | 5 (Growth inhibition rate; 91 to 100%) | 5 (Growth inhibition rate; 91 to 100%) | 5 (Growth inhibition rate; 91 to 100%) | 5 (Growth inhibition rate; 91 to 100%) | 4 (Growth inhibition rate; 71 to 90%) | 5 (Growth inhibition rate; 91 to 100%) | 5 (Growth inhibition rate; 91 to 100%) | 5 (Growth inhibition rate; 91 to 100%) |  |  |  |  |  |  |  |  | 2 (Growth inhibition rate; 31 to 50%) | 5 (Growth inhibition rate; 91 to 100%) | 5 (Growth inhibition rate; 91 to 100%) | 5 (Growth inhibition rate; 91 to 100%) |  |
| Cc1ccc2ccoc2c1Oc1nnc(Cl)cc1O [Example 310] | 5 (Growth inhibition rate; 91 to 100%) | 5 (Growth inhibition rate; 91 to 100%) | 5 (Growth inhibition rate; 91 to 100%) | 5 (Growth inhibition rate; 91 to 100%) | 4 (Growth inhibition rate; 71 to 90%) | 5 (Growth inhibition rate; 91 to 100%) | 5 (Growth inhibition rate; 91 to 100%) | 5 (Growth inhibition rate; 91 to 100%) |  |  |  |  |  |  |  |  | 0 (Growth inhibition rate; 0 to 10%) | 0 (Growth inhibition rate; 0 to 10%) | 5 (Growth inhibition rate; 91 to 100%) | 5 (Growth inhibition rate; 91 to 100%) |  |
